Source: US10487081B2, “Guanidine substituted imidazo[4,5-c] ring compounds” (3M INNOVATIVE PROPERTIES COMPANY, priority 2015, dated 2019)
Structures can show the parent of a compound that is named as a salt. Where two headings read alike, the source gives them in different places.

What was measured:
[1] = tested on: Human peripheral blood mononuclear cells (PBMC); test: Cytokine Induction in Human Cells; format: cell-based; details: 21-24 hrs culture, lowest concentration giving at least 2x negative control, tested 0.0001-10 micromolar
Description: Cytokine Induction in Human Cells
Whole blood was obtained from healthy human donors and collected by venipuncture into vacutainer tubes or syringes containing EDTA. Human peripheral blood mononuclear cells (PBMC) were purified from the whole blood by density gradient centrifugation. Histopaque 1077 (15 mL, Sigma, St. Louis, Mo.) was transferred to 6×50 mL sterile polypropylene conical tubes. The Histopaque was overlayed with 15-25 mL of blood diluted 1:2 in Hank's Balanced Salts Solution (HBSS) (Gibco, Life Technology, Grand Island N.Y.). The tubes were then centrifuged at 1370 rpm for 30 minutes at 20° C., with no brake (400×g, GH 3.8A Rotor).
The interface (buffy coat) containing the PBMC was collected and placed in a new sterile 50 mL conical polypropylene centrifuge tube. The PBMC were mixed with an equal volume of HBSS (about 20 mL from the interface and about 20 mL of HBSS), and then centrifuged at 1090 rpm, 10 min, 20° C., with brake (270×g, GH 3.8A Rotor). After completing centrifugation, the cells were resuspended in 2-3 mL ACK Red blood cell lysis buffer (ammonium chloride potassium solution, Gibco, Life Technology) and incubated for 2-5 minutes at 20° C. Next, HBSS (40 mL) was added to the cells, and the sample was centrifuged at 270×g for 10 min at 20° C. The supernatant was decanted, and the cell pellet was resuspended in 5 mL AIM V® Medium (Gibco, Life Technology). Cell aggregates and debris were removed by filtering the cell solution through a BD Falcon 70 micron nylon cell strainer (BD Biosciences, San Jose, Calif.).
The number of viable cells were determined by counting with a Miltenyi FACS instrument (Miltenyi Biotec Inc., San Diego, Calif.) or by using a hemacytometer. For determining cell viability with a hemacytometer, the cells were diluted 1/10 in 0.4% trypan blue and HBSS (specifically, 50 microliter of trypan blue+40 microliter of HBSS+10 microliter of cell solution were added to a microfuge tube and mixed). Ten microliters of the diluted cells were then applied to the hemacytometer, and the number of viable PBMC were determined by microscopy.
The PBMC sample was then resuspended in 96-well plates at a concentration of 8×10^5 cells/well in 0.1 mL of AIM-V medium. Each compound was solubilized in DMSO to create a 3 mM stock solution. The stock solution was then further diluted with AIM-V medium to prepare the serial dilutions. The diluted compound (100 microliters) was then transferred to the PBMCs to achieve final compound concentrations of 10, 1, 0.1, 0.01, 0.001, 0.0001 micromolar. The plates also had both positive and negative controls. The negative control wells contained only AIM-V medium with no example compound. The positive control wells contained imiquimod serially diluted to concentrations of 10, 1, 0.1, 0.01, 0.001, 0.0001 micromolar. The plates were then cultured at 37° C./5% CO2 for 21-24 hrs. Cell-free supernatants were harvested by centrifuging the 96-well plates at 2100 rpm, 23° C. for 10 minutes. Approximately 160 microliter of the supernatant was then stored in a NUNC 96-well plate, covered with the compression cap and stored at −80° C. until the cytokine analysis was done.
IFN-alpha cytokine levels (pg/mL) were measured by ELISA (human IFN-α, pan specific, Mabtech, Cincinnati, Ohio), IFN-gamma, TNF-alpha, and IP-10 cytokine levels (pg/mL) were measured by multiplex bead assay (magnetic beads, R & D Systems Minneapolis, Minn.) according to the manufacturer's instructions.
Specifically, the minimum effective concentration of each compound (micromolar) was determined as the lowest concentration of the compound that induced a measured cytokine response at a level ([…]) that was at least 2× greater than that observed with the negative control wells.

[2] = ELISA, read-out: MEC to Induce Cytokine IFN-alpha
[3] = multiplex bead assay, read-out: MEC to Induce Cytokine TNF-alpha

SMILES	minimal effective concentration [1, 2]	MEC to Induce Cytokine IFN-gamma ([1]; multiplex bead assay)	MEC to Induce Cytokine IP-10 ([1]; multiplex bead assay)	minimal effective concentration [1, 3]	melting point
CCCCc1nc2c(N)nc3ccccc3c2n1CCOCCNC(=N)N [Example 5, 1-[2-[2-(4-amino-2-butyl-imidazo[4,5-c]quinolin-1-yl)ethoxy]ethyl]guanidine dihydrochloride]	0.01 µM	0.01 µM	0.001 µM	0.001 µM	–
CC(C)Cn1cnc2c(N)nc3ccccc3c21 [imiquimod, reference compound]	10 µM	10 µM	10 µM	10 µM	–
CCc1nc2c(N)nc3ccccc3c2n1CCCCNC(=N)N [Example 2, 1-[4-(4-amino-2-ethyl-imidazo[4,5-c]quinolin-1-yl)butyl]guanidine hydrochloride]	0.1 µM	–	0.1 µM	0.1 µM	–
CCCCc1nc2c(N)nc3ccccc3c2n1CCCCNC(=N)N [Example 4, 1-[4-(4-amino-2-butyl-imidazo[4,5-c]quinolin-1-yl)butyl]guanidine hydrochloride]	0.01 µM	0.1 µM	0.01 µM	0.01 µM	–
COCCc1nc2c(N)nc3ccccc3c2n1CC(C)(C)CNC(=N)N (as salt: hydrochloride) [Example 8, 1-[3-[4-amino-2-(2-methoxyethyl)imidazo[4,5-c]quinolin-1-yl]-2,2-dimethyl-propyl]guanidine hydrochloride]	–	–	–	–	246 to 250 °C
Cc1nc2c(N)nc3ccccc3c2n1CCCCNC(=N)N (as salt: hydrochloride) [Example 1, 1-[4-(4-amino-2-methyl-imidazo[4,5-c]quinolin-1-yl)butyl]guanidine dihydrochloride]	–	–	–	–	234 to 244 °C
Cc1nc2c(N)nc3ccccc3c2n1CCCCNC(=N)N [Example 1, 1-[4-(4-amino-2-methyl-imidazo[4,5-c]quinolin-1-yl)butyl]guanidine dihydrochloride]	1 µM	–	–	0.001 µM	–
CCCc1nc2c(N)nc3ccccc3c2n1CCCCNC(=N)N (as salt: hydrochloride) [Example 3, 1-[4-(4-amino-2-propyl-imidazo[4,5-c]quinolin-1-yl)butyl]guanidine hydrochloride]	–	–	–	–	156 to 158 °C
COCCc1nc2c(N)nc3ccccc3c2n1CCOCCNC(=N)N [Example 6, 1-[2-[2-[4-amino-2-(2-methoxyethyl)imidazo[4,5-c]quinolin-1-yl]ethoxy]ethyl]guanidine dihydrochloride]	0.01 µM	0.01 µM	0.01 µM	0.01 µM	–
COCCc1nc2c(N)nc3ccccc3c2n1CC(C)(C)CNC(=N)N [Example 8, 1-[3-[4-amino-2-(2-methoxyethyl)imidazo[4,5-c]quinolin-1-yl]-2,2-dimethyl-propyl]guanidine hydrochloride]	0.1 µM	0.1 µM	0.01 µM	0.1 µM	–
CCCCCc1nc2c(N)nc3c(c2n1CCCCNC(=N)N)CCCC3 [Example 7, 1-[4-(4-amino-2-pentyl-6,7,8,9-tetrahydroimidazo[4,5-c]quinolin-1-yl)butyl]guanidine hydrochloride]	1 µM	>10 µM	0.1 µM	1 µM	–
CCCc1nc2c(N)nc3ccccc3c2n1CCCCNC(=N)N [Example 3, 1-[4-(4-amino-2-propyl-imidazo[4,5-c]quinolin-1-yl)butyl]guanidine hydrochloride]	0.1 µM	>10 µM	–	0.1 µM	–
COCCc1nc2c(N)nc3ccccc3c2n1CCOCCNC(=N)N (as salt: hydrochloride) [Example 6, 1-[2-[2-[4-amino-2-(2-methoxyethyl)imidazo[4,5-c]quinolin-1-yl]ethoxy]ethyl]guanidine dihydrochloride]	–	–	–	–	188 to 192 °C
CCCCc1nc2c(N)nc3ccccc3c2n1CCCCNC(=N)N (as salt: hydrochloride) [Example 4, 1-[4-(4-amino-2-butyl-imidazo[4,5-c]quinolin-1-yl)butyl]guanidine hydrochloride]	–	–	–	–	237 to 238 °C
CCCCCc1nc2c(N)nc3c(c2n1CCCCNC(=N)N)CCCC3 (as salt: hydrochloride) [Example 7, 1-[4-(4-amino-2-pentyl-6,7,8,9-tetrahydroimidazo[4,5-c]quinolin-1-yl)butyl]guanidine hydrochloride]	–	–	–	–	178 to 180 °C
